From patent US11566007B2, “Ras inhibitors” (Revolution Medicines, Inc., priority 2019, dated 2023)
Like-named read-outs stand apart in the source and are kept apart here.

Legend:
NRAS G12C = NRAS G12C (Homo sapiens (Human), UniProt P01111+P62937, G12C); assay: Ras-Raf (BRAF RBD) disruption / FRET / MOA assay, NRAS G12C; assay type: biochemical; conditions: read-out: IC50* NRAS G12C FRET data
Procedure, shortened: (§1)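 Compound-driven ternary complex of nucleotide-loaded Ras with cyclophilin A, disrupting BRAF RBD binding. 10-point 3-fold dilution from 30 μM final, 3 h at 25° C, then anti-His Eu-W1024 (10 nM) and anti-GST allophycocyanin (50 nM) for 1.5 h. IC50 from TR-FRET ratio decrease versus DMSO.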

NCI-H358 (K-Ras G12C) = assay: CellTiter-Glo cell viability assay, NCI-H358; assay type: cell-based, human; conditions: NCI-H358, 5-day treatment, class symbols, read-out: Additional H358 Cell Viability assay data (K-Ras G12C, IC50)
Procedure, shortened: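 Luminescent viability readout on day 5 after direct compound addition to plated cells; plates sat ~30 min at room temperature before reading. Values expressed as percent of mean DMSO signal, curves fit with a four-parameter logistic model.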

KRAS G12V = KRAS G12V (Homo sapiens (Human), UniProt P01116+P62937, G12V); assay: Ras-Raf (BRAF RBD) disruption / FRET / MOA assay, KRAS G12V; assay type: biochemical; conditions: read-out: IC50* KRAS G12V FRET data
Chain of KRAS G12V (P01116-2 other isoform, or with tags, fused parts or gaps G12V): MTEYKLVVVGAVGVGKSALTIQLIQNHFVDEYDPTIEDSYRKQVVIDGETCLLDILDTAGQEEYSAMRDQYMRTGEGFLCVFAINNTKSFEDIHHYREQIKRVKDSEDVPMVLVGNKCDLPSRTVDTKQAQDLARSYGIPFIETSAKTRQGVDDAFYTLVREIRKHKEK
Chain of KRAS G12V (P62937 whole entry): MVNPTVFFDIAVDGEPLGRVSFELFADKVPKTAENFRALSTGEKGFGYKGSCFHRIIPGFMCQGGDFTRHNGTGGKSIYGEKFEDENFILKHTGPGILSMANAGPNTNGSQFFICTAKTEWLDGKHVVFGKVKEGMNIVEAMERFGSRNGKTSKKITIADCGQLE
Procedure, shortened: as §1

[1] = system: NCI-H358 cells (K-Ras G12C); assay: Potency assay: pERK in NCI-H358 cells; assay type: cell-based, human; conditions: Homo sapiens, NCI-H358; H358 KRAS G12C; read-out: pERK EC50
Procedure, shortened: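 Compounds are dosed as ten 3-fold dilutions from a 10 mM DMSO stock, in duplicate, and left on cells for 4 h at 37 °C, 5% CO2. Phospho-ERK1/2 is then quantified by AlphaLISA SureFire Ultra or In-Cell Western, and IC50 is derived from a 4-parameter sigmoid against log concentration.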

KRAS G12S = KRAS G12S (Homo sapiens (Human), UniProt P01116+P62937, G12S); assay: Ras-Raf (BRAF RBD) disruption / FRET / MOA assay, KRAS G12S; assay type: biochemical; conditions: Ras-Raf disruption/FRET/MOA assay; class symbols; read-out: KRAS G12S FRET data IC50
Chain of KRAS G12S (P01116-2 other isoform, or with tags, fused parts or gaps G12S): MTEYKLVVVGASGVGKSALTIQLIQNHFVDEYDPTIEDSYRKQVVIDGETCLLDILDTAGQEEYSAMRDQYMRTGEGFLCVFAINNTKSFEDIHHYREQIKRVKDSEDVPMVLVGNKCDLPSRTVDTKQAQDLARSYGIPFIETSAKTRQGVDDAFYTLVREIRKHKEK
Chain of KRAS G12S (P62937 whole entry): as the sequence (P62937 whole entry) above
Procedure, shortened: as §1

KRAS G13D = KRAS G13D (Homo sapiens (Human), UniProt P01116+P62937, G13D); assay: Ras-Raf (BRAF RBD) disruption / FRET / MOA assay, KRAS G13D; assay type: biochemical; conditions: read-out: IC50* KRAS G13D FRET data
Chain of KRAS G13D (P01116-2 other isoform, or with tags, fused parts or gaps G13D): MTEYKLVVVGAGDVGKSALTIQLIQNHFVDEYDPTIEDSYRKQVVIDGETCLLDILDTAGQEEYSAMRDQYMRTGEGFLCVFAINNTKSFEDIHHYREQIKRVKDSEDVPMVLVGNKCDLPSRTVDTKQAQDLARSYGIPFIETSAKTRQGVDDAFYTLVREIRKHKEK
Chain of KRAS G13D (P62937 whole entry): as the sequence (P62937 whole entry) above
Procedure, shortened: as §1

K-Ras G13C = K-Ras G13C (Homo sapiens (Human), UniProt P01116+P62937, G13C); assay: Ras-Raf (BRAF RBD) disruption / FRET / MOA assay, KRAS G13C; assay type: biochemical; conditions: KRAS G13C; Ras-Raf disruption/FRET/MOA assay; read-out: IC50* KRAS G13C FRET data
Chain of K-Ras G13C (P01116-2 other isoform, or with tags, fused parts or gaps G13C): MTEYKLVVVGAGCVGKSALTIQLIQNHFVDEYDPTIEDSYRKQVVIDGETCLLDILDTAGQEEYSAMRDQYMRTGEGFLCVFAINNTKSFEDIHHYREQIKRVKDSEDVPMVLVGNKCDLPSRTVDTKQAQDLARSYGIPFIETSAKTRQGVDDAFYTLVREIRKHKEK
Chain of K-Ras G13C (P62937 whole entry): as the sequence (P62937 whole entry) above
Procedure, shortened: as §1

KRAS G12D = KRAS G12D (Homo sapiens (Human), UniProt P01116+P62937, G12D); assay: Ras-Raf (BRAF RBD) disruption / FRET / MOA assay, KRAS G12D; assay type: biochemical; conditions: Ras-Raf disruption/FRET/MOA assay; class symbols; read-out: KRAS G12D FRET data IC50
Chain of KRAS G12D (P01116-2 other isoform, or with tags, fused parts or gaps G12D): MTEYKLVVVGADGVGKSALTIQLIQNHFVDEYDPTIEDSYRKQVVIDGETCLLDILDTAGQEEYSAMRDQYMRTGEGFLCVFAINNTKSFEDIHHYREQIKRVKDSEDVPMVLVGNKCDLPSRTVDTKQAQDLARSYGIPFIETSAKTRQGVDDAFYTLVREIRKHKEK
Chain of KRAS G12D (P62937 whole entry): as the sequence (P62937 whole entry) above
Procedure, shortened: as §1

K-Ras G12C = K-Ras G12C (Homo sapiens (Human), UniProt P01116+P62937, G12C); assay: Ras-Raf (BRAF RBD) disruption / FRET / MOA assay, KRAS G12C; assay type: biochemical; conditions: KRAS G12C; Ras-Raf disruption/FRET/MOA assay; read-out: IC50* KRAS G12C FRET data
Chain of K-Ras G12C (P01116-2 other isoform, or with tags, fused parts or gaps G12C): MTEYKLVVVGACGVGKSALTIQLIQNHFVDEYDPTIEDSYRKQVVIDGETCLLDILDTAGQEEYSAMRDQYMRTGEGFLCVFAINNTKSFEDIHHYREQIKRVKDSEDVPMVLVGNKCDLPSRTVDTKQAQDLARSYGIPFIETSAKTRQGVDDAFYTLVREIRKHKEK
Chain of K-Ras G12C (P62937 whole entry): as the sequence (P62937 whole entry) above
Procedure, shortened: as §1

KRAS WT = KRAS WT (Homo sapiens (Human), UniProt P01116+P62937); assay: Ras-Raf (BRAF RBD) disruption / FRET / MOA assay, KRAS WT; assay type: biochemical; conditions: read-out: IC50* KRAS WT FRET data
Chain of KRAS WT (P01116-2 other isoform, or with tags, fused parts or gaps): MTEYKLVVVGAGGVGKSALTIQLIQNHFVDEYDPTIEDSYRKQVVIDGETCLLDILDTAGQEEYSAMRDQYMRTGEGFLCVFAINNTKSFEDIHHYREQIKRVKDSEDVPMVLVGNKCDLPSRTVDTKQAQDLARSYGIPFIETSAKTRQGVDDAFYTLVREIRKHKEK
Chain of KRAS WT (P62937 whole entry): as the sequence (P62937 whole entry) above
Procedure, shortened: as §1

Chain of NRAS G12C (P01111 whole entry G12C): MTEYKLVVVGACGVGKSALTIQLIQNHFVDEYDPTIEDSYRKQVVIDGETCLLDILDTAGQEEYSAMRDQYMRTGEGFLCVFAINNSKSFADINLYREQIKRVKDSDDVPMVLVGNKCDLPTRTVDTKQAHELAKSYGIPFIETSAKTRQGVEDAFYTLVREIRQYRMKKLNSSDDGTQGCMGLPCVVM
Chain of NRAS G12C (P62937 whole entry): as the sequence (P62937 whole entry) above

Structure (SMILES) | IC50 (NRAS G12C) [µM] | IC50 (NCI-H358 (K-Ras G12C); Homo sapiens, NCI-H358, 120 h) [µM] | IC50 (KRAS G12V) [µM] | EC50 [1] [µM] | IC50 (KRAS G12S) [µM] | IC50 (KRAS G13D) [µM] | IC50 (K-Ras G13C) [µM] | IC50 (KRAS G12D) [µM] | IC50 (K-Ras G12C) [µM] | IC50 (KRAS WT) [µM] | IC50 (NCI-H358 (K-Ras G12C)) [µM]
CCn1c(-c2cccnc2[C@H](C)OC)c2c3cc(ccc31)-c1cccc(c1)C[C@H](NC(=O)CCOC1CN(C(=O)C#CC(C)(C)N3CCC3)C1)C(=O)N1CCC[C@H](N1)C(=O)OCC(C)(C)C2 (atropisomer, axis not shown) [Example A478] | 0.01 to 0.1 | 0.01 to 0.1 | > 10 | < 5 | > 10 | > 10 | > 10 | > 10 | 0.01 to 0.1 | > 10 | 
CCn1c(-c2cccnc2[C@H](C)OC)c2c3cc(ccc31)-c1csc(n1)C[C@H](NC(=O)[C@H](C(C)C)N(C)C(=O)N1CCN(C(=O)C#CC(C)(C)N(C)C)CC1)C(=O)N1CCC[C@H](N1)C(=O)OCC(C)(C)C2 (atropisomer, axis not shown) [Example A479] | < 0.01 | < 0.01 | 0.01 to 0.1 | < 5 | 0.01 to 0.1 | 0.1 to 1 | 0.01 to 0.1 | 0.1 to 1 | < 0.01 | 0.01 to 0.1 | 
CCn1c(-c2cccnc2[C@H](C)OC)c2c3cc(ccc31)-c1cccc(c1)C[C@H](NC(=O)[C@H](C(C)C)N(C)C(=O)[C@H]1CCN(C(=O)/C=C/C(F)F)C1)C(=O)N1CCC[C@H](N1)C(=O)OCC(C)(C)C2 (atropisomer, axis not shown) [Example A485] | 0.01 to 0.1 | < 0.01 | 1 to 10 | < 5 | 1 to 10 | 1 to 10 | 0.1 to 1 | > 10 | 0.01 to 0.1 | 1 to 10 | 
CC#CC(=O)N1CC[C@@H](C(=O)N(C)[C@H](C(=O)N[C@H]2Cc3cccc(c3)-c3ccc4c(c3)c(c(-c3cccnc3[C@H](C)OC)n4CC)CC(C)(C)COC(=O)[C@@H]3CCCN(N3)C2=O)C(C)C)C1 (atropisomer, axis not shown) [Example A487] | 0.1 to 1 | 0.01 to 0.1 | 1 to 10 | < 5 | 1 to 10 | 1 to 10 | 0.1 to 1 | 1 to 10 | 0.1 to 1 | 1 to 10 | 
CCn1c(-c2cccnc2[C@H](C)OC)c2c3cc(ccc31)-c1csc(n1)C[C@H](NC(=O)[C@H](C)N(C)C(=O)[C@H]1CCN(C(=O)C#CC(C)(C)N3CCC3)C1)C(=O)N1CCC[C@H](N1)C(=O)OCC(C)(C)C2 (atropisomer, axis not shown) [Example A489] | 0.01 to 0.1 | 0.01 to 0.1 | 1 to 10 | < 5 | 1 to 10 | 1 to 10 | 1 to 10 | > 10 | 0.01 to 0.1 | 1 to 10 | 
C=CC(=O)NC1CN(C(=O)N(C)[C@H](C(=O)N[C@H]2Cc3nc(cs3)-c3ccc4c(c3)c(c(-c3cccnc3[C@H](C)OC)n4CC)CC(C)(C)COC(=O)[C@@H]3CCCN(N3)C2=O)C(C)C)C1 (atropisomer, axis not shown) [Example A490] | 0.01 to 0.1 | 0.01 to 0.1 | 0.1 to 1 | < 5 | 0.1 to 1 | 0.1 to 1 | 0.1 to 1 | 1 to 10 | 0.01 to 0.1 | 0.1 to 1 | 
C=CC(=O)N1C[C@@H](C)[C@H](C(=O)N(C)[C@H](C(=O)N[C@H]2Cc3cccc(c3)-c3ccc4c(c3)c(c(-c3cccnc3[C@H](C)OC)n4CC)CC(C)(C)COC(=O)[C@@H]3CCCN(N3)C2=O)C(C)C)C1 (atropisomer, axis not shown) [Example A497] | 0.1 to 1 | 0.01 to 0.1 | > 10 | < 5 | > 10 | > 10 | 0.1 to 1 | > 10 | 0.1 to 1 | 1 to 10 | 
CCn1c(-c2cccnc2[C@H](C)OC)c2c3cc(ccc31)-c1cccc(c1)C[C@H](NC(=O)[C@H](C(C)C)N(C)C(=O)[C@H]1CCN(C(=O)C#CC3(N(C)C)CN(C)C3)C1)C(=O)N1CCC[C@H](N1)C(=O)OCC(C)(C)C2 (atropisomer, axis not shown) [Example A499] | 0.01 to 0.1 | 0.01 to 0.1 | 1 to 10 | < 5 | 1 to 10 | 1 to 10 | 1 to 10 | 1 to 10 | 0.01 to 0.1 | 1 to 10 | 
C=CC(=O)N1CC[C@](F)(C(=O)N(C)[C@H](C(=O)N[C@H]2Cc3cccc(c3)-c3ccc4c(c3)c(c(-c3cccnc3[C@H](C)OC)n4CC)CC(C)(C)COC(=O)[C@@H]3CCCN(N3)C2=O)C(C)C)C1 (atropisomer, axis not shown) [Example A501] | 0.01 to 0.1 | 0.01 to 0.1 | 1 to 10 | < 5 | 1 to 10 | 1 to 10 | 0.1 to 1 | 1 to 10 | 0.01 to 0.1 | 0.1 to 1 | 
CC#CC(=O)N1CC[C@]2(CCN([C@H](C(=O)N[C@H]3Cc4nc(cs4)-c4ccc5c(c4)c(c(-c4cccnc4[C@H](C)OC)n5CC)CC(C)(C)COC(=O)[C@@H]4CCCN(N4)C3=O)C(C)C)C2=O)C1 (atropisomer, axis not shown) [Example A511] | 0.1 to 1 | < 0.01 | 1 to 10 | < 5 | 1 to 10 | 1 to 10 | 1 to 10 | > 10 | 0.1 to 1 | 1 to 10 | 
C=CC(=O)N1CC[C@H](C(=O)N(C)[C@H](C(=O)N[C@H]2Cc3cccc(c3)-c3ccc4c(c3)c(c(-c3cccnc3[C@@H]3CCCO3)n4CC)CC(C)(C)COC(=O)[C@@H]3CCCN(N3)C2=O)C(C)C)C1 (atropisomer, axis not shown) [Example A512] | 0.1 to 1 | 0.01 to 0.1 | 1 to 10 | < 5 | 1 to 10 | > 10 | 1 to 10 | > 10 | 0.1 to 1 | 1 to 10 | 
C=CC(=O)N1CC[C@H](C(=O)N(C)[C@H](C(=O)N[C@H]2Cc3cccc(c3)-c3ccc4c(c3)c(c(-c3cc(C5=CCN(C)CC5)cnc3[C@H](C)OC)n4CC)CC(C)(C)COC(=O)[C@@H]3CCCN(N3)C2=O)C(C)C)C1 (atropisomer, axis not shown) [Example A513] | 0.01 to 0.1 |  | 1 to 10 | < 5 | 1 to 10 | 1 to 10 | 0.1 to 1 | 1 to 10 | 0.01 to 0.1 | 1 to 10 | < 0.01
